SMILES strings stand for the structures. Where two headings read alike, the source gives them in different places.

In test [1] the test system is fourth larval stage of N. brasiliensis. Description: In vitro anthelmintic activity against fourth larval stage (L4). Format: cell-based, Nippostrongylus brasiliensis. To be noted: 50 μg/ml, 37° C., seven days; for inhibition at 50 µg/mL: Nippostrongylus brasiliensis, 168 h. As for the experimental part: To obtain the fourth larval stage (L4) of Nippostrongylus brasiliensis, rats were inoculated with 6,500 to 6,750 N. brsiliensis third stage larvae subcutaneously. Seventy-two hours later the rats were sacrificed and the fourth stage larvae harvested. Compounds of Formula (I) were tested at 50 μg/mL against the fourth larval stage of N. brasiliensis at approximately 50 L4/well. This mixture was incubated at 37° C. for a total of seven days and then read for activity. Parameters used to determine drug activity were motility, viability, and the ability of fourth stage larvae to molt to the adult, i.e., cast formation. A compound was defined as active if (1) cast formation was reduced by 40 percent or more; or (2) viability and motility together were reduced 40 percent or more. | Compound B is a compound of Formula (I) where R is methyl. *Percent cast | reduction was determined by the following: | **Percent viability reduction was determined by the | following: | ***Percent motility reduction was a subjective evaluation

For test [2], the target named is T1, purified cloned reverse transcriptase (RT) (HIV-1 M:B_HXB2R, UniProt P04585).
T1 construct: mature chain of Gag-Pol polyprotein
The experiment in a line: In vitro reverse transcriptase inhibitory activity. It is filed as biochemical. To be noted: 400 μg/ml in 10 percent DMSO; 37° C., 0, 15, and 30 minutes; decrease in [3H] TTP incorporation vs controls. On the procedure: The activity of purified cloned reverse transcriptase (RT), in the presence or absence of test compound, was assayed by measuring the incorporation of tritiated thymidine triphosphate ([^3 H] TTP) into a DNA chain using polyadenosine as the template and oligodeoxythymidine as the primer (Biochem. Pharm. 1987, Vol. 36, No. 24 pp. 4361-4362). The final concentration of the compounds tested for anti-RT activity was 400 μg/ml in 10 percent DMSO. Controls contained 10 percent DMSO only. After incubation at 37° C. for 0, 15, and 30 minutes, an aliquot of the incubation mixture was spotted on cellulose paper, washed in TCA-pyrophosphate solution to remove [^3 H] TTP, dried and analyzed for the rate of incorporation of radioactivity. The compounds which inhibited more than 50 percent of the enzyme activity, as determined by a decrease in radioactivity compared with controls, were considered active.

The mark [3] stands for this setting: cast formation (molt to adult), read-out: PERCENT REDUCTION COMPARED TO CONTROL: Casts.
[4] abbreviates: subjective evaluation, read-out: PERCENT REDUCTION COMPARED TO CONTROL: Motility.

As for `CNc1c2c(c3nc4ccccc4c4c3c1N=C4)NCCC2=O` [Compound A, plakinidine A], the “PERCENT REDUCTION COMPARED TO CONTROL: Viability” value in test [1] was 100%. The inhibition at 50 µg/mL in test [1] (setting [3]) and in test [1] (setting [4]) was 100% each time. This molecule also returned an inhibition at 400 µg/mL in test [2] of 83%.
In the case of `CN(C)c1c2c(c3nc4ccccc4c4c3c1N=C4)NCCC2=O` [Compound B, plakinidine B], in test [1], the “PERCENT REDUCTION COMPARED TO CONTROL: Viability” value is 100%. Further, the inhibition at 50 µg/mL in test [1] (setting [3]) and in test [1] (setting [4]) was 100% each time.

Values taken from patent publication US4959370A, “Alkaloids of marine origin” (priority 1989, dated 1990).
